Measurements reported in patent publication US20120213826A1, “Use of Pro-Inflammatory Compounds for Promoting Bone Formation” (Imperial Innovations Limited, priority 2009, published 2012).
“Also recorded” adds a separate entry of the source.

Experiments:
fractured ribs = conditions: daily intraperitoneal 400 μg/kg body weight per day after fracture, rats; cited from earlier work
[1] = tested on: muscle-derived stromal cells (MDSC); assay: MDSC migration through a transwell membrane; type: cell-based, human
Procedure: Migration of 1×10^4 MDSC through an 8 μm pore transwell membrane over 36 hours, in response to fracture supernatant with the addition of AbTNF-α, AbIL-6 and AbIL-1β. The IgG^1 immunoglobulin was used as the antibody control. B: Migration in response to rhTNF-α, rhIL-6 and rhIL-1β in human serum-containing media. Results represent change in cell number, expressed as a percentage of the supernatant, or media only control. Each experiment was performed 3 times (n=3) using 3 fracture supernatants (in A). Results represent mean of 3 experiments ±SEM. *: P<0.05; **: P<0.01; ***: P<0.001; 1-way ANOVA with Bonferroni's multiple comparison test.
MDSC must be recruited to the fracture site from adjacent muscle. Next we assessed the efficacy of the pro-inflammatory cytokines in attracting MDSC in vitro using a transwell assay. 1×10^4 MDSC were seeded onto a 8 μm transwell membrane in serum free media. Next day, the transwell membrane was added to a well containing 10% human serum-containing media +IL-1β, IL6 and TNFα at the end concentrations shown. At 24 hrs the membrane was cleared of any cells on the seeded side, fixed and stained. IL-1β appeared not promote MDSC chemotaxis.
500 μl serum free media was added to each well of a 24 well plate. 8 μm pore transwell membranes (VWR International Ltd) were then added to the wells. 1×10^4 MDSC in serum free media were added to the upper chamber of each transwell membrane. At 12 hours the serum-free media was replaced with test or control media or supernatant and incubated at 37° C. for 36 hours. The upper chambers were then cleared of cells and cell debris using a cotton bud, in sweeping motions. The membrane was then washed and fixed using 10% neutral buffered formalin for 1 hour. After washing, the membrane was then added to a 1% crystal violet solution for 1 hour. After further washing, the membranes were viewed under light microscopy at 20 times magnification, using an Olympus CKX41 microscope with a QICAM camera, (QIMAGING, GT vision LLC). The number of cells present on the underside of the transwell membrane in any random field was counted 3 times and the mean calculated. Cell migration was calculated against the supernatant or human serum-containing (control) media and the number expressed as a percentage relative to the control media.

Substance: TNFα
- fracture healing (fractured ribs): significantly inhibited
- chemotaxis / migration of MDSC ([1]; Example 1, transwell, 10% human serum-containing media, 24 hrs (FIG. 14)): promote chemotaxis of MDSC; also recorded: promoted migration of MDSC
- migration of MDSC ([1]; Example 3, 8 μm transwell, 36 hours, recombinant cytokine in human serum-containing media (FIG. 27B)): chemo attractant for MDSC
- optimal concentration for MDSC migration ([1]; Example 3, transwell, 36 hours (FIG. 27B)): 1 pg/mL
